We go through 17 compounds from patent publication US20250122219A1 (priority 2023, published 2025).

Broadly, the EC50 is the concentration at which the effect is half-maximal. As a reminder, the CC50 is the concentration that lowers cell viability or growth by half.

A value given as a limit tells only on which side of the number the result lay.

One data set deals with HIV-1 (IIIB). Put plainly: Antiviral assay in MT-4 cells. The format is cell-based. As to conditions: Human immunodeficiency virus 1, MT4, 120 h; HIV-1 IIIB in MT-4 cells, 5 days incubation, Cell Titer Glo; read-out: MT4 EC50. In a few lines:
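HIV-1 IIIB-infected MT-4 cells (fresh 1:250 virus stock dilution; mock-infected controls) incubated 5 days at 37 °C with serially diluted compounds in RPMI/10% FBS; 5 μM AZT as positive control. Cell viability read by CellTiter-Glo luminescence as measure of protection from viral replication.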
For orientation: ATP-based viability assays read luminescence as a measure of living cells.

The nature of data set [1]: Cytotoxicity assay in MT-4 cells. The format is cell-based. The following applies: human; uninfected MT-4 cells, 5 days incubation, Cell Titer Glo; read-out: MT4 CC50. In a few lines:
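Uninfected MT-4 cells exposed to serially diluted compounds in RPMI with 10% FBS for 5 days at 37 °C. Viability by Cell Titer Glo chemiluminescence. Puromycin […] as baseline cytotoxicity control.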

Regarding `CC(=O)OCOc1c2n(cc(C(=O)NCc3ccc(F)cc3F)c1=O)[C@@H]1CN(C2=O)[C@@H](C)CC[C@]12CC(C)=NO2` [Example 84, (((3′S,5S,7′R)-10′-((2,4-difluorobenzyl)carbamoyl)-3,3′-dimethyl-1′,11′-dioxo-1′,4′,5′,11′-tetrahydro-3′H,4H,7′H-spiro[isoxazole-5,6′-[2,7]methanopyrido[1,2-a][1,4]diazonin]-12′-yl)oxy)methyl acetate], the EC50 in the data set with HIV-1 (IIIB) turned out to be 3.29 nM. In addition, in data set [1], the CC50 at 5 days worked out at 19900 nM.

On to `CCC(=O)OCOc1c2n(cc(C(=O)NCc3ccc(F)cc3F)c1=O)[C@@H]1CN(C2=O)[C@@H](C)CC[C@]12CC(OC)=NO2` [Example 85, (((3′S,5S,7′R)-10′-((2,4-difluorobenzyl)carbamoyl)-3-methoxy-3′-methyl-1′,11′-dioxo-1′,4′,5′,11′-tetrahydro-3′H,4H,7′H-spiro[isoxazole-5,6′-[2,7]methanopyrido[1,2-a][1,4]diazonin]-12′-yl)oxy)methyl propionate], for which the concentration giving a half-maximal response (EC50) in the data set on HIV-1 (IIIB) is 2.25 nM. Further, the CC50 at 5 days in data set [1] was 28400 nM.

For `CCC(=O)OCOc1c2n(cc(C(=O)NCc3ccc(F)cc3F)c1=O)[C@@H]1CN(C2=O)[C@@H](C)CC[C@]12CC(C)=NO2` [Example 86, (((3′S,5S,7′R)-10′-((2,4-difluorobenzyl)carbamoyl)-3,3′-dimethyl-1′,11′-dioxo-1′,4′,5′,11′-tetrahydro-3′H,4H,7′H-spiro[isoxazole-5,6′-[2,7]methanopyrido[1,2-a][1,4]diazonin]-12′-yl)oxy)methyl propionate], the EC50 in the data set with HIV-1 (IIIB) stood at 2.53 nM. Besides, the CC50 at 5 days in data set [1] came to 21000 nM.

Consider `CCCC(=O)OCOc1c2n(cc(C(=O)NCc3ccc(F)cc3F)c1=O)[C@@H]1CN(C2=O)[C@@H](C)CC[C@]12CC(OC)=NO2` [Example 87, (((3′S,5S,7′R)-10′-((2,4-difluorobenzyl)carbamoyl)-3-methoxy-3′-methyl-1′,11′-dioxo-1′,4′,5′,11′-tetrahydro-3′H,4H,7′H-spiro[isoxazole-5,6′-[2,7]methanopyrido[1,2-a][1,4]diazonin]-12′-yl)oxy)methyl butyrate], for which the EC50 in the data set on HIV-1 (IIIB) was determined as 1.8 nM. Also, the cytotoxic concentration (CC50) at 5 days in data set [1] worked out at 16400 nM.

Consider `CCCC(=O)OCOc1c2n(cc(C(=O)NCc3ccc(F)cc3F)c1=O)[C@@H]1CN(C2=O)[C@@H](C)CC[C@]12CC(C)=NO2` [Example 88, (((3′S,5S,7′R)-10′-((2,4-difluorobenzyl)carbamoyl)-3,3′-dimethyl-1′,11′-dioxo-1′,4′,5′,11′-tetrahydro-3′H,4H,7′H-spiro[isoxazole-5,6′-[2,7]methanopyrido[1,2-a][1,4]diazonin]-12′-yl)oxy)methyl butyrate], for which the EC50 in the data set on HIV-1 (IIIB) is 1.78 nM. Moreover, the CC50 at 5 days in data set [1] is 20400 nM.

`CCCCC(=O)OCOc1c2n(cc(C(=O)NCc3ccc(F)cc3F)c1=O)[C@@H]1CN(C2=O)[C@@H](C)CC[C@]12CC(OC)=NO2` [Example 89, (((3′S,5S,7′R)-10′-((2,4-difluorobenzyl)carbamoyl)-3-methoxy-3′-methyl-1′,11′-dioxo-1′,4′,5′,11′-tetrahydro-3′H,4H,7′H-spiro[isoxazole-5,6′-[2,7]methanopyrido[1,2-a][1,4]diazonin]-12′-yl)oxy)methyl pentanoate]: the EC50 in the data set on HIV-1 (IIIB) was determined as 0.2 nM. For the same compound, the half-maximal cytotoxic concentration (CC50) at 5 days in data set [1] came out at 15800 nM.

As to `CCCCC(=O)OCOc1c2n(cc(C(=O)NCc3ccc(F)cc3F)c1=O)[C@@H]1CN(C2=O)[C@@H](C)CC[C@]12CC(C)=NO2` [Example 90, (((3′S,5S,7′R)-10′-((2,4-difluorobenzyl)carbamoyl)-3,3′-dimethyl-1′,11′-dioxo-1′,4′,5′,11′-tetrahydro-3′H,4H,7′H-spiro[isoxazole-5,6′-[2,7]methanopyrido[1,2-a][1,4]diazonin]-12′-yl)oxy)methyl pentanoate], in the data set on HIV-1 (IIIB), the EC50 amounted to 0.176 nM. In data set [1], the CC50 at 5 days came to 18200 nM.

Consider `CCCCCC(=O)OCOc1c2n(cc(C(=O)NCc3ccc(F)cc3F)c1=O)[C@@H]1CN(C2=O)[C@@H](C)CC[C@]12CC(OC)=NO2` [Example 91, (((3′S,5S,7′R)-10′-((2,4-difluorobenzyl)carbamoyl)-3-methoxy-3′-methyl-1′,11′-dioxo-1′,4′,5′,11′-tetrahydro-3′H,4H,7′H-spiro[isoxazole-5,6′-[2,7]methanopyrido[1,2-a][1,4]diazonin]-12′-yl)oxy)methyl hexanoate], for which the EC50 in the data set on HIV-1 (IIIB) is 1.86 nM. Besides, the CC50 at 5 days in data set [1] turned out to be 37300 nM.

With `CCCCCC(=O)OCOc1c2n(cc(C(=O)NCc3ccc(F)cc3F)c1=O)[C@@H]1CN(C2=O)[C@@H](C)CC[C@]12CC(C)=NO2` [Example 92, (((3′S,5S,7′R)-10′-((2,4-difluorobenzyl)carbamoyl)-3,3′-dimethyl-1′,11′-dioxo-1′,4′,5′,11′-tetrahydro-3′H,4H,7′H-spiro[isoxazole-5,6′-[2,7]methanopyrido[1,2-a][1,4]diazonin]-12′-yl)oxy)methyl hexanoate], the EC50 with HIV-1 (IIIB) came out at 2.14 nM. For the same compound, the CC50 at 5 days in data set [1] was found to be 21500 nM.

With `CCCCCCC(=O)OCOc1c2n(cc(C(=O)NCc3ccc(F)cc3F)c1=O)[C@@H]1CN(C2=O)[C@@H](C)CC[C@]12CC(OC)=NO2` [Example 93, (((3′S,5S,7′R)-10′-((2,4-difluorobenzyl)carbamoyl)-3-methoxy-3′-methyl-1′,11′-dioxo-1′,4′,5′,11′-tetrahydro-3′H,4H,7′H-spiro[isoxazole-5,6′-[2,7]methanopyrido[1,2-a][1,4]diazonin]-12′-yl)oxy)methyl heptanoate], the EC50 with HIV-1 (IIIB) was 2.63 nM. For the same compound, in data set [1], the CC50 at 5 days came to 19500 nM.

As to `CCCCCCC(=O)OCOc1c2n(cc(C(=O)NCc3ccc(F)cc3F)c1=O)[C@@H]1CN(C2=O)[C@@H](C)CC[C@]12CC(C)=NO2` [Example 94, (((3′S,5S,7′R)-10′-((2,4-difluorobenzyl)carbamoyl)-3,3′-dimethyl-1′,11′-dioxo-1′,4′,5′,11′-tetrahydro-3′H,4H,7′H-spiro[isoxazole-5,6′-[2,7]methanopyrido[1,2-a][1,4]diazonin]-12′-yl)oxy)methyl heptanoate], the concentration giving a half-maximal response (EC50) in the data set with HIV-1 (IIIB) is 2.73 nM. The CC50 at 5 days in data set [1] came out at 17600 nM.

Consider `CCCCCCCC(=O)OCOc1c2n(cc(C(=O)NCc3ccc(F)cc3F)c1=O)[C@@H]1CN(C2=O)[C@@H](C)CC[C@]12CC(OC)=NO2` [Example 95, (((3′S,5S,7′R)-10′-((2,4-difluorobenzyl)carbamoyl)-3-methoxy-3′-methyl-1′,11′-dioxo-1′,4′,5′,11′-tetrahydro-3′H,4H,7′H-spiro[isoxazole-5,6′-[2,7]methanopyrido[1,2-a][1,4]diazonin]-12′-yl)oxy)methyl octanoate], for which the EC50 with HIV-1 (IIIB) was 0.998 nM. The CC50 at 5 days in data set [1] was ≥ 50000 nM.

For `CCCCCCCC(=O)OCOc1c2n(cc(C(=O)NCc3ccc(F)cc3F)c1=O)[C@@H]1CN(C2=O)[C@@H](C)CC[C@]12CC(C)=NO2` [Example 96, (((3′S,5S,7′R)-10′-((2,4-difluorobenzyl)carbamoyl)-3,3′-dimethyl-1′,11′-dioxo-1′,4′,5′,11′-tetrahydro-3′H,4H,7′H-spiro[isoxazole-5,6′-[2,7]methanopyrido[1,2-a][1,4]diazonin]-12′-yl)oxy)methyl octanoate], the half-maximal effective concentration (EC50) in the data set on HIV-1 (IIIB) is 0.562 nM. In data set [1], the CC50 at 5 days is ≥ 50000 nM.

In the case of `CCCCCCCCC(=O)OCOc1c2n(cc(C(=O)NCc3ccc(F)cc3F)c1=O)[C@@H]1CN(C2=O)[C@@H](C)CC[C@]12CC(OC)=NO2` [Example 97, (((3′S,5S,7′R)-10′-((2,4-difluorobenzyl)carbamoyl)-3-methoxy-3′-methyl-1′,11′-dioxo-1′,4′,5′,11′-tetrahydro-3′H,4H,7′H-spiro[isoxazole-5,6′-[2,7]methanopyrido[1,2-a][1,4]diazonin]-12′-yl)oxy)methyl nonanoate], the concentration giving a half-maximal response (EC50) in the data set on HIV-1 (IIIB) amounted to 4.59 nM. For the same compound, the CC50 at 5 days in data set [1] is ≥ 50000 nM.

Take `CCCCCCCCC(=O)OCOc1c2n(cc(C(=O)NCc3ccc(F)cc3F)c1=O)[C@@H]1CN(C2=O)[C@@H](C)CC[C@]12CC(C)=NO2` [Example 98, (((3′S,5S,7′R)-10′-((2,4-difluorobenzyl)carbamoyl)-3,3′-dimethyl-1′,11′-dioxo-1′,4′,5′,11′-tetrahydro-3′H,4H,7′H-spiro[isoxazole-5,6′-[2,7]methanopyrido[1,2-a][1,4]diazonin]-12′-yl)oxy)methyl nonanoate]: the EC50 with HIV-1 (IIIB) came to 3.87 nM. Further, the CC50 at 5 days in data set [1] was ≥ 50000 nM.

Consider `CCCCCCCCCC(=O)OCOc1c2n(cc(C(=O)NCc3ccc(F)cc3F)c1=O)[C@@H]1CN(C2=O)[C@@H](C)CC[C@]12CC(OC)=NO2` [Example 99, (((3′S,5S,7′R)-10′-((2,4-difluorobenzyl)carbamoyl)-3-methoxy-3′-methyl-1′,11′-dioxo-1′,4′,5′,11′-tetrahydro-3′H,4H,7′H-spiro[isoxazole-5,6′-[2,7]methanopyrido[1,2-a][1,4]diazonin]-12′-yl)oxy)methyl decanoate], for which, in the data set with HIV-1 (IIIB), the EC50 worked out at 0.471 nM. The CC50 at 5 days in data set [1] was ≥ 50000 nM.

As for `CCCCCCCCCC(=O)OCOc1c2n(cc(C(=O)NCc3ccc(F)cc3F)c1=O)[C@@H]1CN(C2=O)[C@@H](C)CC[C@]12CC(C)=NO2` [Example 100, (((3′S,5S,7′R)-10′-((2,4-difluorobenzyl)carbamoyl)-3,3′-dimethyl-1′,11′-dioxo-1′,4′,5′,11′-tetrahydro-3′H,4H,7′H-spiro[isoxazole-5,6′-[2,7]methanopyrido[1,2-a][1,4]diazonin]-12′-yl)oxy)methyl decanoate], in the data set with HIV-1 (IIIB), the EC50 turned out to be 0.246 nM. In addition, the CC50 at 5 days in data set [1] is ≥ 50000 nM.
